From patent US6514945B1, “Azalide antibiotic compositions” (Pfizer Inc., priority 2000, dated 2003)

Test: Equilibration of azalide isomers I and II in heated aqueous acid, monitored by HPLC (Table 1)
Type: physicochemical
Settings: isomer I prior to equilibration, for comparison
Description: The equilibrium ratio of isomers I and II (about 90%±4% to about 10%±4%, respectively) was consistent for all experiments. […] Without being bound by any theory, lower equilibration temperatures or lower pH values generally result in substantially longer equilibration times. Equilibration time can also depend on, inter alia, the concentration of starting material, and the type and concentration of the acid used. Isomer I at a concentration of up to about 300 mg per mL of composition was heated to a temperature of about 40° C. to about 80° C. in the presence of one or more acids at a concentration of about 0.2 mmol to about 1.0 mmol per mL of mixture and with a sufficient quantity of hydrochloric acid to achieve a pH of about 6.5 to about 7.5 for up to about 20 hours to produce an equilibrium mixture of isomers that is about […] pure. Equilibration kinetic parameters and impurity levels for equilibration of azalide isomers I and II were determined as a function of pH, equilibration temperature, type of acid, and isomer I concentration and are listed in Table 1. […]
Equilibrium mixtures of isomers were prepared and assayed as follows. […] 100 mL of solution were prepared in each of experiments 25C-28C, 200 mL of solution were prepared in each of experiments 29C-30C, and equilibration was monitored from 0.5 mL aliquots removed from the solutions. […]

% Equilibrium mixture of isomers: 98.39%
% Impurities: 1.61%
Compound: CCCNC[C@]1(O)[C@H](C)O[C@@H](O[C@H]2[C@H](C)[C@@H](OC3O[C@H](C)C[C@H](N(C)C)[C@H]3O)C(C)(O)C[C@@H](C)CN[C@H](C)[C@@H](O)[C@](C)(O)[C@@H](CC)OC(=O)[C@@H]2C)C[C@@]1(C)OC (single isomer, unassigned) [isomer I]
